Data set [1] has as its system K1 culture-adapted P. falciparum strain. Also noted: method as in PMID 25791675. Particulars: K1 strain of P. falciparum; reference values; read-out: EC50 PfK1; cited from earlier work.
Data set [2] relates to HepG2 cell line. Particulars: cited from earlier work.
In data set [3] the test system is K1 culture-adapted P. falciparum strain. The experiment in a line: Antiplasmodial evaluation, SYBR Green I fluorescence-based drug susceptibility test. It is filed as cell-based. Particulars: for EC50: Plasmodium falciparum, multi-resistant K1 strain of P. falciparum, 72 h incubation, three independent experiments, read-out: EC50 PfK1; for SI (selectivity index): from CC50 HepG2 and EC50 PfK1. How it is done: […]. Parasitemia was maintained daily between 1 and 3%. The P. falciparum drug susceptibility test was carried out by comparing quantities of DNA in treated and control cultures of parasite in human erythrocytes according to a SYBR Green I fluorescence-based method[19] using a 96-well fluorescence plate reader. Compounds previously dissolved in DMSO (final concentration less than 0.5% v/v) were incubated in a total assay volume of 200 μL (RPMI, 2% hematocrit and 0.4% parasitemia) for 72 h in a humidified atmosphere (10% O2 and 5% CO2) at 37 °C in 96-well flat bottom plates. Duplicate assays were performed for each sample. After incubation, plates were frozen at […] for 24 h. Then, the frozen plates were thawed for 1 h at 37 °C. Fifteen μL of each sample were transferred to 96-well flat bottom non-sterile black plates (Greiner Bio-one, Kremsmünster, Austria), already containing 15 μL of the SYBR Green I lysis buffer (2X SYBR Green I, 20 mM Tris base pH 7.5, 20 mM EDTA, 0.008% w/v saponin, 0.08% w/v Triton X-100). […] Plates were incubated for 15 min at 37 °C and then read on a TECAN Infinite F-200 spectrophotometer with excitation and emission wavelengths at 485 and 535 nm, respectively.

Data set [4] in a line: Cytotoxic evaluation, MTT assay. The class given is cell-based. The following applies: HepG2 cells, human HepG2 cell line, three independent experiments. How it is done:
The HepG2 cell line was maintained at 37 °C, 5% CO2, at 90% humidity in […] supplemented with 10% fetal bovine serum, 1% L-glutamine (200 mM), and penicillin (100 U per mL)/streptomycin (100 μg mL^−1) (complete RPMI medium). The cytotoxicity of the tested molecules on the HepG2 (hepatocarcinoma cell line purchased from ATCC, ref HB-8065) cell line was assessed according to the method of Mosmann[20] with slight modifications. Briefly, 5 × 10^3 cells in 100 μL of complete medium were inoculated into each well of 96-well plates and incubated at 37 °C in humidified 5% CO2. After 24 h incubation, 100 μL of medium with various product concentrations dissolved in DMSO (final concentration less than 0.5% v/v) were added and the plates were incubated for 72 h at 37 °C. Triplicate assays were performed for each sample. Each plate was then microscopically examined for possible precipitate formation before the medium was aspirated from the wells. Next, 100 μL of MTT (3-(4,5-dimethyl-2-thiazolyl)-2,5-diphenyl-2H-tetrazolium bromide) solution (0.5 mg mL^−1 in medium without FBS) was added to each well. Cells were incubated for 2 h at 37 °C. After this time, the MTT solution was removed and DMSO (100 μL) was added to dissolve the resulting blue formazan crystals. Plates were shaken vigorously (700 rpm) for 10 min. The absorbance was measured at 570 nm with 630 nm as a reference wavelength using a BIO-TEK ELx808 Absorbance Microplate Reader (LabX, Midland, ON, Canada). DMSO was used as a blank and doxorubicin (purchased from Sigma Aldrich) as a positive control. Cell viability was calculated as a percentage of control (cells incubated without the compound). […] CC50 values to represent the mean value calculated from three independent experiments.

Data set [5] can be described thus: Microsomal stability. The following applies: for half-life: CD-1, read-out: t1/2 (half-time, microsomal stability); for half-life / Clint (intrinsic clearance): in vitro, female mouse microsomes, 37 °C, pH 7.4. It is filed as in vitro ADME, mouse. As to the method:
The tested product and propranolol, used as a reference, were incubated in duplicate (reaction mixture volume of 0.5 mL) with female mouse microsomes (CD-1, 20 mg mL; BD Gentest) at 37 °C in a 50 mM phosphate buffer, pH 7.4, in the presence of MgCl2 (5 mM), NADP (1 mM), glucose-6-phosphate dehydrogenase (G6PD) (0.4 U per mL), and glucose-6-phosphate (5 mM). For the estimation of the intrinsic clearance, 50 μL aliquots were collected at 0, 5, 10, 20, 30, and 40 min and the reaction was stopped with 4 volumes of acetonitrile (ACN) containing the internal standard. After centrifugation at 10 000×g for 10 min at 4 °C, the supernatants were conserved at 4 °C for immediate analysis or placed at −80 °C in case of postponement of the analysis. Controls (time zero and final time point) in triplicate were prepared by the incubation of the internal standard with microsomes denatured by acetonitrile. The LC-MS system used for this study was a Waters Acquity I-Class/Xevo TQD equipped with a Waters Acquity BEH C18 column, 50 by 2.1 mm, 1.7 μm. The mobile phases were 10 mM ammonium acetate (mobile phase A) and acetonitrile with 0.1% formic acid (mobile phase B). The injection volume was 1 μL, and the flow rate was 600 μL min^−1. Chromatographic analysis, with a total duration of 4 min, was made with the following gradient: 0 < t < 0.2 min, 2% mobile phase B; 0.2 < t < 2 min, linear increase to 98% mobile phase B; 2 < t < 2.5 min, 98% mobile phase B; 2.5 < t < 2.6 min, linear decrease to 2% mobile phase B; 2.6 < t < 4 min, 2% mobile phase B. The quantification of each compound was obtained by converting the average of the ratios of the analyte/internal standard surfaces to the percentage of consumed product. The ratio of the control at t0 corresponded to 0% of the product consumed. The calculation of the half-life (t1/2) of each compound in the presence of microsomes was carried out according to the equation t1/2 = (ln2)/k, where k is the first-order degradation constant (the slope of the logarithm of the compound concentration versus incubation time). The intrinsic clearance in vitro (Clint, expressed in mlmin^−1mg) was calculated according to the equation Clint = (dose/AUC∞)/[microsomes], where dose is the initial concentration of the product in the sample, AUC∞ is the area under the concentration–time curve extrapolated to infinity, and [microsomes] is the microsome concentration expressed in mg μL^−1.

The mark [6] stands for this setting: read-out: CC50 HepG2, human HepG2 cell line, reference values.

These results are taken from publication PMC9264115, “Pd-catalyzed C–C and C–N cross-coupling reactions in 2-aminothieno[3,2-d]pyrimidin-4(3H)-one series for antiplasmodial pharmacomodulation” (RSC Advances, 2022).

Read-outs that look alike come from different tables or passages of the source. A value given as a limit tells only on which side of the number the result lay.

`Cc1ccc(-c2cc3nc(NC(C)(C)C)[nH]c(=O)c3s2)cc1` [M1 (free base), gamhepathiopine]: the EC50 in data set [1] is 200 nM. Besides, the CC50 in data set [2] (setting [6]) was 25.6 µM.
In the case of `O=C1C(O)=C([C@H]2CC[C@H](c3ccc(Cl)cc3)CC2)C(=O)c2ccccc21` [Atovaquone, atovaquone], the EC50 in data set [1] was 1.3 nM. In data set [2] (setting [6]), the CC50 is more than 15.6 µM.
For `CC(C)(C)Nc1nc2cc(N3CCCCC3)sc2c(=O)[nH]1` [Compound 1g, 2-tert-Butylamino-6-(piperidin-1-yl)thieno[3,2-d]pyrimidin-4(3H)-one], the half-maximal effective concentration (EC50) in data set [3] was 770 ± 130 nM. Moreover, the CC50 at 72 h in data set [4] worked out at 33.9 ± 1.4 µM. For the same molecule, in data set [5], the half-life is 40 min and the “Clint (intrinsic clearance)” value is recorded as 42 μLmin^−1mg. For the same molecule, in data set [5] (mouse microsomes, piperidine moiety (1g) vs tolyl moiety (M1)), the “improvement in the half-time versus M1” value was “more than 3 fold”.
On to `COc1cccc2c1C(=O)c1c(O)c3c(c(O)c1C2=O)C[C@@](O)(C(=O)CO)C[C@@H]3O[C@H]1C[C@H](N)[C@H](O)[C@H](C)O1` [Doxorubicine, doxorubicine], for which the CC50 in data set [2] is 0.2 µM.
Consider `CCN(CC)CCCC(C)Nc1ccnc2cc(Cl)ccc12` (centres unmarked) [Chloroquine, chloroquine], for which the EC50 in data set [1] was 500 nM.
For `Cc1ccc(-c2cc3nc(NC(C)(C)C)[nH]c(=O)c3s2)cc1` [Compound M1, gamhepathiopine, reference compound], in data set [5], the half-life stood at 11 min and the “Clint (intrinsic clearance)” value is reported as 240 μLmin^−1mg. In addition, in data set [1], the EC50 was 45 nM. Moreover, the CC50 in data set [2] (setting [6]) is 24 µM.
`CC(C)(C)Nc1nc2cc(C#CC3CC3)sc2c(=O)[nH]1` [Compound 2e, 2-tert-Butylamino-6-(cyclopropylethynyl)thieno[3,2-d]pyrimidin-4(3H)-one] returned a melting point of 158 to 160 °C. For the same molecule, in data set [3], the EC50 is 1900 ± 600 nM and the “SI (selectivity index)” value came to 10.9. The same molecule registered a CC50 at 72 h in data set [4] of 20.8 ± 1.4 µM.
Regarding `CC(C)(C)Nc1nc2cc(Nc3ccc(F)cc3)sc2c(=O)[nH]1` [Compound 1e, 2-tert-Butylamino-6-[(4-fluorophenyl)amino]thieno[3,2-d]pyrimidin-4(3H)-one], the melting point was 195 to 197 °C. Moreover, in data set [3], the EC50 was 7100 ± 1400 nM and the “SI (selectivity index)” value was 3.0. Moreover, the CC50 at 72 h in data set [4] is 21.3 ± 1.6 µM.
In the same order, the values of `CC(C)(C)Nc1nc2cc(-c3ccc(N4CCOCC4)cc3)sc2c(=O)[nH]1` [Compound 4g, 2-tert-Butylamino-6-[4-(morpholin-4-yl)phenyl]thieno[3,2-d]pyrimidin-4(3H)-one] are more than 300 °C, 2400 ± 900 nM, 3.3 and 7.9 ± 1.3 µM.
Molecule `Cc1ccc(C#Cc2cc3nc(NC(C)(C)C)[nH]c(=O)c3s2)cc1` [Compound 2b, 2-tert-Butylamino-6-[(4-methylphenyl)ethynyl]thieno[3,2-d]pyrimidin-4(3H)-one] came in with a melting point of 235 to 237 °C. In data set [3], the EC50 was 2350 ± 380 nM and the “SI (selectivity index)” value is recorded as more than 5.3. This molecule also gave a half-maximal cytotoxic concentration (CC50) at 72 h in data set [4] of more than 12.5 µM.
With `Cc1ccc(C#Cc2cc3nc(NC(C)C)[nH]c(=O)c3s2)cc1` [Compound 2c, 6-[(4-methylphenyl)ethynyl]-2-(propan-2-ylamino)thieno[3,2-d]pyrimidin-4(3H)-one], the melting point fell in the range of 277 to 279 °C. Besides, in data set [3], the EC50 was determined as 4600 ± 1000 nM and the “SI (selectivity index)” value was 0.7. This molecule also came in with a CC50 at 72 h in data set [4] of 3.1 ± 0.6 µM.
Take `CC(C)(C)Nc1nc2cc(-c3ccc(F)c(Cl)c3)sc2c(=O)[nH]1` [Compound 4e, 2-tert-Butylamino-6-(3-chloro-4-fluorophenyl)thieno[3,2-d]pyrimidin-4(3H)-one]: the melting point fell in the range of 259 to 261 °C. In data set [3], the EC50 was 2000 ± 900 nM and the “SI (selectivity index)” value is recorded as more than 6.3. This molecule also showed a CC50 at 72 h in data set [4] of more than 12.5 µM.
`CC(=O)Nc1ccc(-c2cc3nc(NC(C)(C)C)[nH]c(=O)c3s2)cc1` [Compound 4r, N-[4-(2-tert-butylamino-4-oxo-3,4-dihydrothieno[3,2-d]pyrimidin-6-yl)phenyl]acetamide] displayed a melting point of more than 300 °C. In data set [3], the EC50 was determined as 3900 ± 1100 nM and the “SI (selectivity index)” value is less than 0.1. In data set [4], this molecule gave a cytotoxic concentration (CC50) at 72 h of 0.16 ± 0.04 µM.
Molecule `CC(C)(C)Nc1nc2cc(-c3ccc(S(=O)(=O)N4CCOCC4)cc3)sc2c(=O)[nH]1` [Compound 4m, 2-tert-Butylamino-6-[4-(morpholin-4-ylsulfonyl)phenyl]thieno[3,2-d]pyrimidin-4(3H)-one] came in with a melting point of more than 300 °C. In data set [3], the EC50 is 5100 ± 2600 nM and the “SI (selectivity index)” value is more than 2.5. The same molecule had a CC50 at 72 h in data set [4] of more than 12.5 µM.
As to `C[C@H]1c2cccc(O)c2C(=O)C2=C(O)[C@]3(O)C(=O)C(C(N)=O)=C(O)[C@@H](N(C)C)[C@@H]3[C@@H](O)[C@@H]21` [Doxycycline, doxycycline], in data set [1], the EC50 is 5000 nM. Further, the CC50 in data set [2] (setting [6]) is 20 µM.
With `COC(=O)c1ccc(-c2cc3nc(NC(C)(C)C)[nH]c(=O)c3s2)cc1` [Compound 4a, Methyl-4-(2-tert-butylamino-4-oxo-3,4-dihydrothieno[3,2-d]pyrimidin-6-yl)benzoate], the melting point is more than 300 °C. Moreover, in data set [3], the EC50 was found to be 2500 ± 900 nM and the “SI (selectivity index)” value is more than 5.0. Moreover, the CC50 at 72 h in data set [4] was more than 12.5 µM.
